Experimental data: patent US20020004495A1, “Methods for stimulating bone formation” (priority 1998, published 2002)

Legend:
EP2 mRNA in bone tissue = experiment: EP2 mRNA in rat bone tissue after systemic administration (Northern blot); type: in vivo; conditions: rats, 3-6 mg/Kg
Method: For mRNA localization experiments, 5-week old Sprague-Dawley rats (Charles River) are euthanized by CO2, their tibiae and calvariae are excised, cleaned of soft tissues and frozen immediately in liquid nitrogen. For EP4 regulation experiments, 6-week old rats are given a single injection of either vehicle (7% ethanol in sterile water) or an anabolic dose of PGE2 (Cayman Chemical, Ann Arbor, Mich.), 3-6 mg/kg in the same vehicle) intraperitoneally. Animals are euthanized at several time points post-injection and their tibiae and calvariae, as well as samples from lung and kidney tissues are frozen in liquid nitrogen. Total RNA is extracted from the tibial metaphysis or diaphysis and calvaria using a guanidinium isothiocyanate-phenol-chloroform method after pulverizing frozen bone samples by a tissue homogenizer. See P. Chomczynski et al., Single-step method of RNA isolation by acid guanidium thiocyanate-phenol-chloroform extraction., Analyt Biochem, 162, 156-159 (1987), which is incorporated by reference herein in its entirety. RNA samples ([…]) are separated on 0.9% agarose/formaldehyde gels and transferred onto nylon membranes (Boehringer Mannheim, Germany). […]

TRAB-11 cells = experiment: Intracellular cAMP in TRAB-11 cells; type: cell-based, rat
Method: (§1) RCT-1 and RCT-3 are clonal cell lines immortalized by SV-40 large T antigen from cells released from fetal rat calvair by a cmbination collagenase/hyaluronidase digestion. RCT-1 cells, derived from cells released during the first 10 minutes of digestion (fraction I), are cultured in RPMI 1640 medium (BRL) with 10% fetal bovine serum and 0.4 mg/ml G418 (BRL). […] RCT-3 cells, immortalized from osteoblast-enriched fraction III cells, are cultured in F-12 medium (BRL) with 5% Fetal bovine serum and 0.4 mg/ml G418. TRAB-11 cells are also immortalized by SV40 large T antigen from adult rat tibia and are cultured in RPMI 1640 medium with 10% FBS and 0.4 mg/ml G418. ROS 17/2.8 rat osteosarcoma cells are cultured in F-12 containing 5% FBS. Osteoblast-enriched (fraction III) primary fetal rat calvaria cells are obtained by collagenase/hyaluronidase digestion of calvariae of 19 day-old rat fetuses. See Rodan et al., Growth stimulation of rat calvaria osteoblastic cells by acidic FGF, Endocrinology, 121, 1919-1923 (1987), which is incorporated by reference herein in its entirety. Cells are released during 30-50 minutes digestion (fraction III) and are cultured in F-12 medium containing 5% FBS. […]

RCT-3 cells = experiment: Intracellular cAMP in RCT-3 cells; type: cell-based, rat
Method: as §1

[1] = tested on: EP4 expression in bone marrow cells; experiment: In situ hybridization of EP4 in rat tibia; type: in vivo; conditions: rats, single anabolic dose, tibial metaphysis
Method: For mRNA localization experiments, 5-week old Sprague-Dawley rats (Charles River) are euthanized by CO2, their tibiae and calvariae are excised, cleaned of soft tissues and frozen immediately in liquid nitrogen. For EP4 regulation experiments, 6-week old rats are given a single injection of either vehicle (7% ethanol in sterile water) or an anabolic dose of PGE2 (Cayman Chemical, Ann Arbor, Mich.), 3-6 mg/kg in the same vehicle) intraperitoneally. Animals are euthanized at several time points post-injection and their tibiae and calvariae, as well as samples from lung and kidney tissues are frozen in liquid nitrogen.
Frozen tibiae are sectioned coronally at […] thickness and sections are mounted on charged slides (Probe On Plus, Fisher Scientific, Springfield, N.J.) and are kept at −70° C. until hybridization. cRNA probes are labeled with ^35S-UTPgS (ICN, Costa Mesa, Calif.) using a Riboprobe II kit (Promega Madison, Wis.). Hybridization is performed overnight at 50° C. […]
In situ hybridization is used in order to localize cells expressing EP4 in bone In control experiment (vehicle-injected) rats, low expression of EP4 is detected in bone marrow cells. […]

EP2 mRNA in RP-1 cells = EP2 mRNA in RP-1 cells (Northern blot); type: cell-based, rat
Method: (§2) RP-1 periosteal cells are spontaneously immortalized from primary cultures of periosteal cells from tibae of 4-week old Sprague-Dawley rats and are cultured in DMEM (BRL, Gaithersburg, Md.) with 10% fetal bovine serum (JRH Biosciences, Lenexa, Kans.). […] Total RNA is extracted from the tibial metaphysis or diaphysis and calvaria using a guanidinium isothiocyanate-phenol-chloroform method after pulverizing frozen bone samples by a tissue homogenizer. See P. Chomczynski et al., Single-step method of RNA isolation by acid guanidium thiocyanate-phenol-chloroform extraction., Analyt Biochem, 162, 156-159 (1987), which is incorporated by reference herein in its entirety. RNA samples ([…]) are separated on 0.9% agarose/formaldehyde gels and transferred onto nylon membranes (Boehringer Mannheim, Germany). Membranes are prehybridized in Hybrisol I (Oncor, Gaithersburg, Md.) and 0.5 mg/ml sonicated salmon sperm DNA (Boehringer) at 42° C. for 3 hours and are hybridized at 42° C. with rat EP2 and mouse EP4 cDNA probes labeled with [^32P]-dCTP (Amersham, Buckinghamshire, UK) by random priming using the rediprime kit (Amersham). After hybridization, membranes are washed 4 times in 2×SSC+0.1% SDS at room temperature for a total of 1 hour and once with 0.2×SSC+0.1% SDS at 55° C. for 1 hour and then exposed to Kodak XAR 2 film at −70° C. using intensifying screens. […]

[2] = tested on: EP4 mRNA in RP-1 periosteal cells; experiment: EP4 mRNA in RP-1 periosteal cells (Northern blot); type: cell-based, rat; conditions: 10^-6 M
Method: as §2

EP4 mRNA in RCT-3 cells = EP4 mRNA in RCT-3 cells (Northern blot); type: cell-based, rat
Method: RCT-1 and RCT-3 are clonal cell lines immortalized by SV-40 large T antigen from cells released from fetal rat calvair by a cmbination collagenase/hyaluronidase digestion. RCT-1 cells, derived from cells released during the first 10 minutes of digestion (fraction I), are cultured in RPMI 1640 medium (BRL) with 10% fetal bovine serum and 0.4 mg/ml G418 (BRL). […] RCT-3 cells, immortalized from osteoblast-enriched fraction III cells, are cultured in F-12 medium (BRL) with 5% Fetal bovine serum and 0.4 mg/ml G418. TRAB-11 cells are also immortalized by SV40 large T antigen from adult rat tibia and are cultured in RPMI 1640 medium with 10% FBS and 0.4 mg/ml G418. ROS 17/2.8 rat osteosarcoma cells are cultured in F-12 containing 5% FBS. Osteoblast-enriched (fraction III) primary fetal rat calvaria cells are obtained by collagenase/hyaluronidase digestion of calvariae of 19 day-old rat fetuses. See Rodan et al., Growth stimulation of rat calvaria osteoblastic cells by acidic FGF, Endocrinology, 121, 1919-1923 (1987), which is incorporated by reference herein in its entirety. Cells are released during 30-50 minutes digestion (fraction III) and are cultured in F-12 medium containing 5% FBS. Total RNA is extracted from the tibial metaphysis or diaphysis and calvaria using a guanidinium isothiocyanate-phenol-chloroform method after pulverizing frozen bone samples by a tissue homogenizer. […]

[3] = tested on: ROS 17/2.8 rat osteosarcoma cells; experiment: Intracellular cAMP in ROS 17/2.8 cells; type: cell-based
Method: as §1

[4] = tested on: EP4 mRNA in tibiae and calvariae; experiment: EP4 mRNA in rat bone tissue after systemic administration (Northern blot); type: in vivo
Method: For mRNA localization experiments, 5-week old Sprague-Dawley rats (Charles River) are euthanized by CO2, their tibiae and calvariae are excised, cleaned of soft tissues and frozen immediately in liquid nitrogen. For EP4 regulation experiments, 6-week old rats are given a single injection of either vehicle (7% ethanol in sterile water) or an anabolic dose of PGE2 (Cayman Chemical, Ann Arbor, Mich.), 3-6 mg/kg in the same vehicle) intraperitoneally. Animals are euthanized at several time points post-injection and their tibiae and calvariae, as well as samples from lung and kidney tissues are frozen in liquid nitrogen. Total RNA is extracted from the tibial metaphysis or diaphysis and calvaria using a guanidinium isothiocyanate-phenol-chloroform method after pulverizing frozen bone samples by a tissue homogenizer. See P. Chomczynski et al., Single-step method of RNA isolation by acid guanidium thiocyanate-phenol-chloroform extraction., Analyt Biochem, 162, 156-159 (1987), which is incorporated by reference herein in its entirety. RNA samples ([…]) are separated on 0.9% agarose/formaldehyde gels and transferred onto nylon membranes (Boehringer Mannheim, Germany). Membranes are prehybridized in Hybrisol I (Oncor, Gaithersburg, Md.) and 0.5 mg/ml sonicated salmon sperm DNA (Boehringer) at 42° C. for 3 hours and are hybridized at 42° C. with rat EP2 and mouse EP4 cDNA probes labeled with [^32P]-dCTP (Amersham, Buckinghamshire, UK) by random priming using the rediprime kit (Amersham). After hybridization, membranes are washed 4 times in 2×SSC+0.1% SDS at room temperature for a total of 1 hour and once with 0.2×SSC+0.1% SDS at 55° C. for 1 hour and then exposed to Kodak XAR 2 film at −70° C. using intensifying screens. After developing the films, bound probes are removed twice with 0.1% SDS at 80° C. and membranes are hybridized with a human GAPDH (Glyceraldehyde 3-Phosphate Dehydrogenase) cDNA probe (purchased from Clontech, Palo Alto, Calif.) for loading control. To examine if PGE2 regulates EP4 mRNA levels in vivo in bone tissue, […] male rats are injected with PGE2 (3-6 mg/Kg).

CCCCC[C@H](O)/C=C/[C@H]1[C@H](O)CC(=O)[C@@H]1C/C=C\CCCC(=O)O [PGE2, prostaglandin E2]
induction of EP2 mRNA in bone tissue (EP2 mRNA in bone tissue): does not induce | effect on intracellular cAMP (TRAB-11 cells): markedly induced | effect on intracellular cAMP (RCT-3 cells): markedly induced | expression of EP4 in bone marrow cells (in situ hybridization) [1]: increasesd the expression | induction of EP2 mRNA (EP2 mRNA in RP-1 cells): does not induce | effect on EP4 mRNA levels [2]: rapidly increases | time of peak of EP4 mRNA levels after treatment [2]: 2 h | effect on EP4 mRNA levels (EP4 mRNA in RCT-3 cells): no effect | effect on intracellular cAMP [3]: no effect | effect on EP4 mRNA levels in the tibial diaphysis ([4]; rats, 3-6 mg/Kg): rapidly increased | time of peak of EP4 mRNA levels in the tibial diaphysis after injection ([4]; rats, 3-6 mg/Kg): 2 h | effect on expression of EP4 in tibiae and calvariae ([4]; young adult rats, 3-6 mg/kg): upregulates | time of peak of EP4 expression in tibiae and calvariae ([4]; young adult rats, 3-6 mg/kg): 1 to 2 h
